PubChem BioAssay (NCI)
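Five compound concentrations were applied to cells in 96-well plates for 48 hours; endpoints were derived by simple linear interpolation of the resulting dose-response curve. GI50 is the concentration that inhibits growth by half. TGI: total growth inhibition.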

Legend:
Assay in all cases: DTP human tumour cell line panel, 48 h
BT-549 breast = tested on: BT-549 breast
DU-145 prostate = tested on: DU-145 prostate
T-47D breast = tested on: T-47D breast
MDA-MB-435 = tested on: MDA-MB-435
MCF7 breast = tested on: MCF7 breast

| SMILES | GI50 (BT-549 breast) [µM] | TGI (BT-549 breast) [µM] | GI50 (DU-145 prostate) [µM] | TGI (DU-145 prostate) [µM] | GI50 (T-47D breast) [µM] | TGI (T-47D breast) [µM] | GI50 (MDA-MB-435) [µM] | TGI (MDA-MB-435) [µM] | GI50 (MCF7 breast) [µM] | TGI (MCF7 breast) [µM] |
| --- | --- | --- | --- | --- | --- | --- | --- | --- | --- | --- |
| COc1ccc2c(c1)cn1c3ccc(O)cc3nc(N)c21 | 4.72 | 22.7 | 0.24 | 5.43 | 2.34 | 10.4 | 0.0217 | 0.0749 | 0.615 | 4.99 |
| C=CCOc1cccc(/C=C2\SC(=Nc3ccc(O)cc3)NC2=O)c1 | 0.529 | 3.4 | 0.399 | – | 0.495 | > 100 | 0.155 | 0.315 | 0.361 | > 57.8 |
| C[C@@H]1C[C@H]2CC[C@H](O2)[C@H](C)C(=O)O[C@@H](C)C[C@@H]2CC[C@@H](O2)[C@@H](C)C(=O)O[C@H](C)C[C@H]2CC[C@H](O2)[C@H](C)C(=O)O[C@@H](C)C[C@@H]2CC[C@@H](O2)[C@@H](C)C(=O)O1 | – | > 100 | – | > 100 | – | 0.857 | – | > 49.3 | – | > 100 |
| CCCCCCCCCCCCCCCCN1CC2CCCCC2C1 (stereo not drawn) | 11.3 | 24.6 | 3.85 | 14.1 | – | – | 8.57 | 24.3 | 9.57 | > 100 |
| O=C1CC(c2ccc(O)cc2)C2(O1)C(=O)OC(C(O)CO)C2O (stereo not drawn) | – | > 100 | – | > 100 | – | > 100 | – | > 100 | – | > 100 |
| COc1cccc2c1c(C(=O)C(=O)Nc1cc(C)no1)cn2Cc1ccc(F)cc1 | 5.36 | > 100 | 19.4 | > 100 | 5.17 | > 100 | 1.08 | 3.64 | 3.27 | > 90.6 |
| O=C(O)/C=C\C(=O)N1C/C(=C\c2ccccc2Cl)C(=O)/C(=C/c2ccccc2Cl)C1 | 2.06 | 4.11 | 2.43 | 5.48 | 4.48 | 16.2 | 3.34 | 13.6 | 1.09 | 10.4 |
| CCOC(=O)c1cc(NS(=O)(=O)c2ccccc2)cc(C(=O)OCC)c1 | > 100 | > 100 | > 100 | > 100 | > 100 | > 100 | > 100 | > 100 | > 100 | > 100 |
| COc1ccc(-c2csc(N(C(=O)N3CCN(c4cc5c(cc4F)c(=O)c(C(=O)O)cn5C4CC4)CC3)c3ccccc3)n2)cc1 | 1.6 | 7.63 | 1.49 | > 100 | 2.65 | 40.7 | 3.51 | > 100 | 3.09 | > 100 |
| Oc1cccc2ccc(N/N=C/c3cc(CN4CCCCC4)c(O)c4ncccc34)nc12 | 0.0574 | 6.02 | 0.109 | 3.18 | 0.192 | 14.9 | 0.0444 | 1.73 | 0.034 | 1.28 |
| COc1ccc(-c2nc3sc4c(c3c(=O)[nH]2)CCCCCC4)cc1 | 5.4 | > 33.2 | > 33.2 | > 33.2 | – | – | 0.107 | 0.838 | – | – |
| CN(C)CCNc1c2c(c(NCCN(C)C)c3[nH]ccc13)C(=O)c1ccccc1C2=O | 1.08 | 3.04 | 0.587 | 3.1 | 2.87 | > 21.2 | 1.54 | 5.14 | 0.371 | – |
| COc1ccc(-c2nn3c(-c4cc(F)c(Cl)cc4Cl)nnc3s2)cc1 | 24.4 | 69.7 | 29.1 | 83 | 27.5 | > 100 | 4.86 | > 100 | 11.4 | > 100 |
| COC(=O)[C@@]1(C)CC[C@]2(C)CC[C@]3(C)C4=CC=C5C(=CC(=O)C(O)=C5C)[C@]4(C)[C@@H](O)C[C@@]3(C)[C@@H]2C1 | 10.5 | 22.3 | 12.3 | 23.3 | 3.04 | 15.9 | 10.6 | 21.5 | 11.3 | 23.9 |
| NCCn1c(=O)[nH]c(=O)[nH]c1=S | > 100 | > 100 | > 100 | > 100 | > 100 | > 100 | > 100 | > 100 | 61.1 | > 100 |
| COc1cc(/C=C/c2cc(O)c3cc(C(C)=O)c(=O)oc3c2)cc2c1O[C@]1(C)CC[C@@H](O)C(C)(C)[C@H]1C2 | – | > 61.2 | > 27.8 | > 45.6 | > 23.8 | > 53.9 | > 20.1 | > 45.7 | – | > 39.3 |
| COc1ccc(OC)c(/C=C2\SC(=S)NC2=O)c1 | – | – | 20 | 74.3 | 18.6 | 56.7 | 39 | > 100 | 23.5 | > 100 |
| Cc1cc(N(CCCl)CCCl)ccc1C=Nc1ccc(-c2csc(Cc3ccccc3)n2)cc1 | 13.4 | 42.4 | 7.98 | 62.3 | 2.82 | 49.2 | 12.4 | 39.9 | 4.66 | 43.3 |
| N#Cc1c(N2CCCC2)[nH]c(=O)c(C(c2c(Cl)cccc2Cl)c2c(O)c(C#N)c(N3CCCC3)[nH]c2=O)c1O | 2.3 | 6.25 | 5.57 | 18.4 | 3.13 | 13.4 | 9.6 | 25.2 | 14.2 | 49.8 |
| O=c1cc(-c2ccccc2)[nH]c2ccccc12 | – | > 52.1 | 0.829 | > 71.4 | 0.468 | > 100 | – | – | 0.383 | > 100 |
| COc1cc2c(c(OC)c1)C1c3ccccc3NC(=O)N1CC2 (stereo not drawn) | 6.24 | 80.7 | 4.84 | > 100 | 5.59 | > 100 | – | – | 3.13 | > 100 |
| O=C(NCCO)Nc1ccc(-c2nc(N3CCOCC3)c3cccn3n2)cc1 | 0.0729 | 3.6 | 0.232 | > 58.5 | < 0.0212 | 0.125 | 0.188 | > 28.1 | 0.0703 | > 100 |
